Holding throughout (experiment): NCI-60 cell line screen, 48 h
The test system of experiment [1] is PC-3 prostate.
Experiment [2] concerns EKVX NSCLC.
In experiment [3] the test system is ACHN renal.
Experiment [4] concerns NCI-H522 lung.
The subject of experiment [5] is NCI-H460 lung.
Experiment [6] has as its system SF-539 CNS.
In experiment [7] the test system is UO-31 renal.
Experiment [8] concerns DU-145 prostate.
Experiment [9] concerns TK-10 renal.
Experiment [10] has as its system MDA-MB-231 breast.
For experiment [11], the system named is OVCAR-5 ovarian.
In experiment [12] the test system is MCF7 breast.
The test system of experiment [13] is MALME-3M melanoma.
Experiment [14] deals with RPMI-8226 leukemia.
For experiment [15], the system named is MDA-N.
For experiment [16], the system named is T-47D breast.
For experiment [17], the system named is KM12 colon.
Experiment [18] concerns UACC-62 melanoma.

Structures are written as SMILES.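 Growth conditions: 96-well plates. Treatment: test compound, 48 hours, 5 concentrations. Analysis: linear interpolation between bracketing concentrations; unreached endpoints set to highest concentration. TGI marks complete inhibition of growth.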

As for `CC(=O)Oc1c2c(c(CC=C(C)C)c3c1C(=O)C1=C[C@@H]4CC5C(C)(C)OC(C/C=C(/C)C(=O)O)(C4=O)[C@@]15O3)OC(C)(CCC=C(C)C)C=C2` (some centres undefined), the TGI in experiment [1] was 1.24 µM; in [2], 0.839 µM; in [3], 0.279 µM; in [4], 0.281 µM; in experiment [5], 1.97 µM; in [6], 0.252 µM. Moreover, the TGI came to 0.526 µM in experiment [7]; 0.838 µM in [8]; 0.585 µM in experiment [9]; 0.779 µM in experiment [10]; 1.16 µM in experiment [11]; 1.4 µM in experiment [12]. Further, the TGI in experiment [13] was determined as 0.558 µM; in experiment [14] it was 0.538 µM; in [15], 0.536 µM; in experiment [16], 0.439 µM; in experiment [17] it was 0.897 µM; in experiment [18] it was 0.86 µM.

Turning to `COc1cccc2c3ccccc3c3nc[nH]c3c12`, the TGI in experiment [1] was greater than 100 µM; in [2], greater than 100 µM; in [3] it was greater than 100 µM; in experiment [4], greater than 70.1 µM; in [5], greater than 69.2 µM; in [6], 52 µM. The TGI in experiment [7] is greater than 100 µM; in [8] it was greater than 100 µM; in experiment [9] it was greater than 75.4 µM; in experiment [10] it was greater than 79.2 µM; in [11], greater than 100 µM; in [12], greater than 100 µM. The TGI in experiment [13] is greater than 100 µM; in experiment [14], 44.5 µM; in experiment [15] it was greater than 100 µM; in experiment [16], greater than 100 µM; in [17], greater than 100 µM; in [18], greater than 100 µM.

Turning to `CCOC(=O)CSc1nnc(CSc2nc(-c3ccccc3)c(-c3ccccc3)[nH]2)n1-c1ccccc1`, the TGI in [1] was 43.8 µM; in experiment [2], greater than 100 µM; in experiment [3] it was 35.5 µM; in [4], greater than 100 µM; in experiment [5], greater than 100 µM; in experiment [6], 41.6 µM. Besides, the TGI in [7] was 38.9 µM; in [8], 30.1 µM; in experiment [9] it was 31.9 µM; in experiment [10], greater than 100 µM; in experiment [11], greater than 100 µM; in experiment [12], greater than 100 µM. The TGI is greater than 100 µM in experiment [13]; greater than 100 µM in [14]; greater than 100 µM in [15]; 89.7 µM in experiment [16]; greater than 100 µM in [17]; 71.6 µM in experiment [18].

Consider `C[N+](C)(C)/N=C/c1ccc(O)c(O)c1`, for which the TGI in experiment [1], in experiment [2], in experiment [3], in [4], in experiment [5] and in experiment [6] was greater than 100 µM each time. Also, the TGI in experiment [7], in experiment [8], in experiment [9], in [10], in experiment [11] and in [12] was greater than 100 µM throughout. For the same molecule, the TGI in experiment [13], in [14], in [15], in experiment [16], in experiment [17] and in experiment [18] was greater than 100 µM in each case.

In the case of `Cc1ccc(S(=O)(=O)N2c3ccccc3[C@H]3CCC=C[C@H]32)cc1`, the TGI in experiment [1] is greater than 100 µM; in [2], greater than 92.6 µM; in experiment [3], greater than 93.3 µM; in [4], 6.35 µM; in experiment [5] it was greater than 64.7 µM; in experiment [6], 34 µM. For the same molecule, the TGI in experiment [7] was 34.9 µM; in [8], greater than 100 µM; in experiment [9] it was greater than 100 µM; in experiment [10], greater than 100 µM; in experiment [11], greater than 100 µM; in experiment [12] it was greater than 100 µM. Besides, the TGI was 39 µM in [13]; 43 µM in experiment [14]; greater than 100 µM in [15]; greater than 100 µM in [16]; 45.7 µM in [17]; 42.3 µM in [18].

On to `Cn1cc(S(=O)(=O)NC(=O)Nc2ccc(Cl)cc2)c2ccccc21`, for which the TGI in experiment [1] is greater than 100 µM; in experiment [2], greater than 100 µM; in experiment [3], greater than 100 µM; in experiment [4], 69.3 µM; in experiment [5], greater than 100 µM; in experiment [6] it was greater than 100 µM. In addition, the TGI in experiment [7] was greater than 100 µM; in [8], greater than 100 µM; in experiment [9], 55.2 µM; in experiment [10], greater than 100 µM; in experiment [11] it was greater than 100 µM; in [12] it was greater than 100 µM. Further, the TGI in experiment [13] was greater than 100 µM; in experiment [14], greater than 100 µM; in [15], greater than 100 µM; in [16], greater than 100 µM; in experiment [17] it was greater than 100 µM; in experiment [18], 79.9 µM.

Turning to `CCCCc1ccc(-n2sc3ncc([N+](=O)[O-])cc3c2=O)cc1`, the TGI in [1] came out at 18.7 µM; in experiment [2], 29.8 µM; in experiment [3], 28 µM; in [4], 9.36 µM; in experiment [5] it was 25.3 µM; in experiment [6], 39.7 µM. The TGI in [7] was found to be 35.5 µM; in experiment [8] it was 57.9 µM; in experiment [9], 61.9 µM; in [10] it was 23.5 µM; in experiment [11], 40.6 µM; in experiment [12] it was 40.5 µM. Further, the TGI came out at 21.7 µM in experiment [13]; 32.5 µM in experiment [14]; 28 µM in [15]; 25.9 µM in experiment [16]; 25.4 µM in experiment [17]; 21.8 µM in experiment [18].

With `S=C(N/N=C/c1ccccn1)Nc1ccc(Cl)cc1`, the TGI was greater than 100 µM in experiment [1]; greater than 100 µM in [2]; 1.66 µM in experiment [3]; 0.18 µM in [4]; greater than 100 µM in [5]; 14.4 µM in experiment [6]. For the same molecule, the TGI in [7] is 1.09 µM; in experiment [8], greater than 100 µM; in experiment [9], greater than 96 µM; in [10], greater than 100 µM; in [11], greater than 100 µM; in experiment [12], greater than 100 µM. Further, the TGI is greater than 29 µM in experiment [13]; greater than 26.4 µM in [14]; greater than 100 µM in experiment [15]; greater than 100 µM in experiment [16]; greater than 100 µM in [17]; 1.51 µM in experiment [18].

The values are drawn from PubChem BioAssay (NCI).
